Reference: patent US9279010B2, “Treatment of inflammatory bowel diseases with mammal beta defensins” (Defensin Therapeutics ApS, priority 2008, dated 2016)

Experiments:
[1] = system: human peripheral blood mononuclear cells (PBMC); assay: TNF production from LPS-treated human PBMC, CBA (Example 5); format: cell-based; details: Table 21
Method: (§1) Peripheral blood was drawn from healthy volunteers (with approval from the relevant ethical committee in Denmark). Heparinized blood was diluted 1/1 v/v with RPMI and were subjected to Ficoll density centrifugation within 2 h of drawing. Plasma was collected from the top from individual donors and was kept on ice until it was used at 2% in the culture medium (autologous culture medium). Isolated PBMC were resuspended in autologous culture medium and seeded in 96-well culture plates with 255.000 cells per well in a total of 200 μl. […] The concentrations used for stimulation were optimized on 3 different donors in initial experiments, for LPS two different concentrations were used to be sure to be on a cytokine level that is possible to modulate. In some experiments PBMC were treated with Dexamethason and Indomethacin alone and together with LPS or LTA as a control on downregulation of inflammatory cytokines. The supernatants were collected after incubation at 37° C. for 24 hours, and stored at −80° C. until cytokine measurement. Viability was measured by Alamar Blue (Biosource, DALL 1100) in all experiments and in some cases also by MTS (Promega) according to manufacturer's instruction and was in some experiments also judged by counting of the cells by a Nucleocounter.
(§2) Cytokine production in supernatants was measured by flow cytometry with a human inflammation cytometric bead array (CBA) according to manufacturer's instructions (BD) on a FACSarray flow cytometer. The following cytokines were measured: IL-8, IL-1β, IL-10, TNF, IL-12 p70, IL-6. In some experiments, cytokines were measured by ELISA kits from R&D systems (IL-10, TNF-α, IL-1β) according to the manufacturer′ instruction.
(§3) Example 5 was carried out essentially as described in Example 4.
(§4) In each table, all samples were tested on the same donor. SD means standard deviation.

[2] = system: human peripheral blood mononuclear cells (PBMC); assay: IL-10 production from LPS-treated human PBMC, CBA (Example 5); format: cell-based; details: for IL-10 / IL-10 % of control: Table 22
Method: as §1, §2, §4

[3] = system: human peripheral blood mononuclear cells (PBMC); assay: IL-1β production from LPS-treated human PBMC, CBA (Example 5, Table 23); format: cell-based
Method: as §1, §2, §3, §4

[4] = system: human PBMC; assay: Toxicity to human PBMC (Example 5); format: cell-based
Method: as §1, §3

[5] = system: human PBMC; assay: IL-23 in supernatants of human PBMC, ELISA (Example 6, Table 25); format: cell-based; details: test compound 1 μg/ml
Method: as §1
Example 6 was carried out essentially as described in Example 4 for human PBMCs; however, the readout was IL-23 instead of TNF, IL-1β and IL-10. Moreover, the effect of rhBD2 on human monocyte-derived dendritic cells was also investigated.
Cell culture supernatants were collected and stored at −80° C. Amounts of IL-23 was measured by standard sandwich ELISA using commercially available antibodies and standards according to the manufacturer's protocols (eBioscience).
All experiments were performed at least twice, with representative results shown. The data presented are expressed as mean plus/minus standard deviation […]. […] Differences were considered significant for p<0.05.

[6] = system: human peripheral blood mononuclear cells (PBMC); assay: TNF production from LPS-treated human PBMC, CBA (Example 7, Table 26); format: cell-based; details: test compound 1 μg/ml
Method: as §1, §2
(§5) Example 7 was carried out essentially as described in Example 4 for human PBMCs. […] The amino acid sequence of mBD3 is shown in SEQ ID NO:6. Mouse PBMCs were prepared as described below.

[7] = system: mouse peripheral blood mononuclear cells (PBMC); assay: TNF production from LPS-treated mouse PBMC, CBA (Example 7); format: cell-based, mouse (NMRI); details: 1 μg/ml
Method: as §5
Mouse peripheral blood mononuclear cells were isolated from blood of ten NMRI mice. In short, heparinized blood was diluted 1/1 v/v with RPMI and subjected to Ficoll density centrifugation within 2 h of drawing. Plasma was collected from the top and discarded. Isolated PBMC were resuspended in culture medium (RPMI 1640 (Gibco, 42401) w/ 1% penicillin and streptomycin and 1% L-Glutamine) and seeded in 96-well culture plates with 115.500 cells per well in a total of 200 μl. […] The supernatants were collected after incubation at 37° C. for 24 hours, and stored at −80° C. until cytokine measurement.
Cytokine production in supernatants was measured by flow cytometry with a mouse inflammation cytometric bead array (CBA) according to manufacturer's instructions (BD) on a FACSarray flow cytometer.

[8] = LPS 0.6 ng/ml, test compound 1 μg/ml
[9] = LPS 0.6 ng/ml, test compound 10 μg/ml
[10] = LPS 20 ng/ml, test compound 1 μg/ml
[11] = LPS 20 ng/ml, test compound 10 μg/ml
[12] = Medium (no LPS), test compound 1 μg/ml
[13] = concentration not given, LPS 0.6 ng/ml
[14] = concentration not given, LPS 20 ng/ml
[15] = concentration not given, Medium
[16] = LPS 0.6 ng/ml, concentration of test compound not given
[17] = LPS 20 ng/ml, concentration of test compound not given

Substance: hBD4 variant: consists of amino acids 3-39 of hBD4, SEQ ID NO:5 (ELDRICGYGTARCRKKCRSQEYRIGRCPNTYACCLRK)
- TNF ([1]; 1 μg/ml, LPS 0.6 ng/ml): 468 pg/mL
- TNF % of control ([1]; 1 μg/ml, LPS 0.6 ng/ml): 64%
- TNF ([1]; 1 μg/ml, LPS 20 ng/ml): 778 pg/mL
- TNF % of control ([1]; 1 μg/ml, LPS 20 ng/ml): 36%
- TNF ([1]; 1 μg/ml, Medium): 0 pg/mL
- TNF ([1]; 10 μg/ml, LPS 0.6 ng/ml): 211 pg/mL
- TNF % of control ([1]; 10 μg/ml, LPS 0.6 ng/ml): 29%
- TNF ([1]; 10 μg/ml, LPS 20 ng/ml): 139 pg/mL
- TNF % of control ([1]; 10 μg/ml, LPS 20 ng/ml): 6%
- TNF ([1]; 10 μg/ml, Medium): 0 pg/mL
- IL-10 ([2]; 1 μg/ml, LPS 0.6 ng/ml): 90 pg/mL
- IL-10 % of control ([2]; 1 μg/ml, LPS 0.6 ng/ml): 136%
- IL-10 % of control ([2]; 1 μg/ml, LPS 20 ng/ml): 157%
- IL-10 ([2]; 1 μg/ml, Medium): 0 pg/mL
- IL-10 ([2]; 10 μg/ml, LPS 0.6 ng/ml): 92 pg/mL
- IL-10 % of control ([2]; 10 μg/ml, LPS 0.6 ng/ml): 139%
- IL-10 ([2]; 10 μg/ml, LPS 20 ng/ml): 187 pg/mL
- IL-10 % of control ([2]; 10 μg/ml, LPS 20 ng/ml): 168%
- IL-10 ([2]; 10 μg/ml, Medium): 0 pg/mL
- Secretion of IL-10 ([2]; human PBMC with LPS, summary of Table 22): significantly and dose-dependently enhanced
- IL-1β [3, 8]: 286 pg/mL
- IL-1β % of control [3, 8]: 39%
- IL-1β [3, 9]: 163 pg/mL
- IL-1β % of control [3, 9]: 22%
- IL-1β [3, 10]: 1004 pg/mL
- IL-1β % of control [3, 10]: 40%
- IL-1β [3, 11]: 463 pg/mL
- IL-1β % of control [3, 11]: 18%
- IL-1β [3, 12]: 0 pg/mL
- IL-1β ([3]; Medium (no LPS), test compound 10 μg/ml): 0 pg/mL
- toxicity to the cells ([4]; 40 μg/ml): toxic to the cells

Substance: hBD3: human beta defensin 3 (SEQ ID NO:3), prepared using chemical synthesis
- TNF ([1]; 1 μg/ml, LPS 0.6 ng/ml): 528 pg/mL
- TNF % of control ([1]; 1 μg/ml, LPS 0.6 ng/ml): 73%
- TNF ([1]; 1 μg/ml, LPS 20 ng/ml): 451 pg/mL
- TNF % of control ([1]; 1 μg/ml, LPS 20 ng/ml): 21%
- TNF ([1]; 1 μg/ml, Medium): 0 pg/mL
- IL-10 ([2]; 1 μg/ml, LPS 0.6 ng/ml): 71 pg/mL
- IL-10 % of control ([2]; 1 μg/ml, LPS 0.6 ng/ml): 107%
- IL-10 % of control ([2]; 1 μg/ml, LPS 20 ng/ml): 137%
- IL-10 ([2]; 1 μg/ml, Medium): 0 pg/mL
- IL-1β [3, 8]: 331 pg/mL
- IL-1β % of control [3, 8]: 45%
- IL-1β [3, 10]: 568 pg/mL
- IL-1β % of control [3, 10]: 22%
- IL-1β [3, 12]: 0 pg/mL
- toxicity to the cells ([4]; 10 μg/ml): toxic to the cells
- toxicity to the cells ([4]; 40 μg/ml): toxic to the cells

Substance: Infliximab: anti-inflammatory compound, positive control on downregulation of TNF [reference compound]
- TNF [1, 13]: 0 pg/mL
- TNF % of control [1, 13]: 0%
- TNF [1, 14]: 0 pg/mL
- TNF % of control [1, 14]: 0%
- TNF [1, 15]: 0 pg/mL
- IL-10 [2, 13]: 46 pg/mL
- IL-10 % of control [2, 13]: 69%
- IL-10 [2, 14]: 63 pg/mL
- IL-10 % of control [2, 14]: 56%
- IL-10 [2, 15]: 0 pg/mL
- IL-1β [3, 16]: 636 pg/mL
- IL-1β % of control [3, 16]: 86%
- IL-1β [3, 17]: 2704 pg/mL
- IL-1β % of control [3, 17]: 106%
- IL-1β ([3]; Medium (no LPS), concentration of test compound not given): 0 pg/mL
- IL-23 pg/ml ([5]; Control (medium)): 227 pg/mL
- IL-23 pg/ml ([5]; LPS 0.6 ng/ml): 356 pg/mL
- IL-23 pg/ml ([5]; LPS 20 ng/ml): 373 pg/mL
- IL-23 pg/ml ([5]; LTA 5 μg/ml): 349 pg/mL
- TNF ([6]; LPS 20 ng/ml): 1 pg/mL
- TNF ([6]; Medium (no LPS)): 0 pg/mL
- TNF ([7]; LPS 20 ng/ml): 2119 pg/mL
- TNF ([7]; Medium): 530 pg/mL
